{
  "source": "patent US11179363B2",
  "about": "“Non-steroidal selective glucocorticoid receptor agonistic modulators (SEGRAMs) and uses thereof” (ASSOCIATION POUR LA RECHERCHE À L'IGBMC (ARI), priority 2017, dated 2021)",
  "key": {"[1]": {"system": "HDM-induced asthma-like allergic lung inflammation", "assay": "House dust mite (HDM)-induced asthma-like allergic lung inflammation", "assay_type": "in vivo, mice", "conditions": "HDM model", "experimental": "Glucocorticoids have been (Pearlman et al., 1997. Ann Allergy Asthma Immunol. 78(4):356-62), and are still, widely used in asthma therapy. In order to investigate the possible CpdX anti-inflammatory activity in vivo, mice were sensitized and challenged with either ovalbumin (OVA) or house dust mite (HDM) to induce an asthma-like allergic lung inflammation.\nMice were intranasally sensitized with 1 μg HDM from D0 to D4, and further intranasally sensitized with 10 μg HDM on D14 and D21. Mice were then subdivided into eight groups, and on D29, D30 and D31, each mouse was again intranasally challenged with […]. The first seven groups received respectively 0.5 mg/kg of body weight of Dex, CpdX, CpdX(eA), CpdX(eB), CpdX-D3, CpdX-D3(eA) or CpdX-D3(eB), while the eighth group served as a control.\nOn D32, the airway responsiveness was invasively determined using a computer-controlled small animal ventilator (FlexVent® system, SCIREQ Technologies). Mice were anesthetized with xylazine (15 mg/kg, i.p.), followed 15 minutes later by an i.p. injection of pentobarbital sodium (54 mg/kg). An 18-gauge metal needle was then inserted into the trachea, each mouse was connected to the FlexVent® ventilator and quasi-sinusoidally ventilated with a tidal volume of 10 mL/kg at a frequency of 150 breaths/minute and a positive end-expiratory pressure of 2 cm H2O, in order to achieve a mean lung volume close to spontaneous breathing. After baseline measurement, mice were challenged for 10 seconds with a saline aerosol and, at 4.5-minute intervals, with 50 mg/mL methacholine. Airway resistance and elastance were expressed as cmH2O.s/mL and cmH2O/mL respectively.\nThe lung allergic inflammation was assessed by examination of the bronchoalveolar lavage (BAL) fluid from each of these HDM-challenged mice. The total BAL cells, eosinophils, neutrophils, macrophages and lymphocytes were counted. RNA transcripts were extracted from lung samples. RNA transcripts of IL-1β, IL-6, IL-4, IL-5, IL-13, Eotaxin, CCL4, IL-10 and TNFα were analyzed by q-RT-PCR. Lung tissues were harvested and histological (with H&E staining) and immunohistochemical analyses were also carried out (with eosinophil-specific and neutrophil-specific antibodies)."}, "[2]": {"system": "DSS-induced Th17 ulcerative colitis", "assay": "Dextran sodium sulfate (DSS)-induced ulcerative colitis", "assay_type": "in vivo, Balb/C mice", "experimental": "To investigate the anti-inflammatory activity of CpdX and CpdX-D3 on a Th17 ulcerative colitis, Balb/C mice were treated with 3% DSS in drinking water for 13 days, with or without an intraperitoneal administration of either Dex, CpdX, CpdX(eA), CpdX(eB), CpdX-D3, CpdX-D3(eA) or CpdX-D3(eB) (1 mg/kg of body weight) on D11, D12 and D13.\nAt D14, RNA transcripts were extracted from mouse colons. IL-1β, IL-6, IL-17a, IL-17f, TSLP and MMP13 transcripts were analyzed by q-RT-PCR. Colon samples were also harvested for histological analyses (with H&E staining)."}, "[3]": {"system": "OVA-induced allergic conjunctivitis", "assay": "Ovalbumin (OVA)-induced allergic conjunctivitis", "assay_type": "in vivo, Balb/C mice", "conditions": "0.1% instillation D22 to D24, 20 minutes after the last OVA challenge", "experimental": "To investigate the anti-inflammatory effect of CpdX or CpdX-D3 on an allergic conjunctivitis, Balb/C mice were intraperitoneally sensitized with 50 μg OVA with alum on both days D1 and D8, and then challenged from D15 to D21 with 250 μg OVA in 5 μL of sterilized vehicle (0.9% NaCl), which were directly instilled onto the conjunctival sac. From D22 to D24, mice were divided into several groups, and received instillations with either OVA alone, OVA together with 0.1% of either Dex, CpdX, CpdX(eA), CpdX(eB), CpdX-D3, CpdX-D3(eA) or CpdX-D3(eB).\nThe clinical appearance of mouse eyes was evaluated 20 minutes after the last instillation on D24. Clinical signs (conjunctival hyperemia, lid edema and tearing) were scored to evaluate the occurrence and severity of conjunctivitis as described by Gimenes et al. (2015. Experimental Eye Research 134:24-32). Parameters were graded on a scale ranging from 0 to 3, (0=absence, 1=mild, 2=moderate, and 3=severe symptoms), each animal receiving a total clinical score ranging from 0 to 9. The data were expressed as mean±SEM with at least four mice per treatment."}, "[4]": {"system": "thymus, spleen, adrenal gland and kidney", "assay": "Organ weights (thymus, spleen, adrenal gland, kidney) after three-month treatment", "assay_type": "in vivo, B6 male mice", "conditions": "s.c. 1 mg/kg daily, three months", "experimental": "B6 male mice (8-week-old) were daily subjected for three months to a subcutaneous injection of either vehicle (NaCl 0.9%), Dex, CpdX, CpdX(eA), CpdX(eB), CpdX-D3, CpdX-D3(eA) or CpdX-D3(eB) (1 mg/kg body weight, diluted in vehicle). Following these treatments, four organs (thymus, spleen, adrenal gland and kidney) were harvested and weighted."}, "adrenal glands": {"system": "adrenal glands", "assay": "Corticosterone synthesis and adrenal gland after three-month treatment", "assay_type": "in vivo, B6 male mice", "conditions": "three months"}, "[5]": {"assay": "Blood glucose and intraperitoneal glucose tolerance test (IPGTT) after three-month treatment", "assay_type": "in vivo, B6 male mice", "conditions": "three months; glucose i.p. injection", "experimental": "B6 male mice (8-week-old) were daily subjected for three months to a subcutaneous injection of either vehicle (NaCl 0.9%), Dex, CpdX, CpdX(eA), CpdX(eB), CpdX-D3, CpdX-D3(eA) or CpdX-D3(eB) (1 mg/kg body weight, diluted in vehicle). Mice were over-night-fasted. Mouse blood glucose concentration was measured before (To) and during two hours (T120) after glucose i.p. injection ([…])."}, "[6]": {"conditions": "i.p. 1 mg/kg on D11, D12, D13, 3% DSS 13 days"}},
  "data": [
    {"smiles": "[2H]C([2H])([2H])Oc1ccc(F)cc1C(C)(C)CC(O)(CNc1ccc2c(c1)COC2=O)C(F)(F)F", "note": "(single isomer, unassigned; enantiomer a) [CpdX-D3(eA), 5-{4-[2-(methoxy-D3)-5-fluorophenyl]-2-hydroxy-4-methyl-2-(trifluoromethyl)pentylamino}isobenzofuran-1(3H)-one enantiomer A]", "values": [
      {"measurement": "total number of BAL cells, eosinophils and lymphocytes", "setting": "[1]; 0.5 mg/kg, D32, vs control group, 0.5 mg/kg", "result": "efficiently decreased"},
      {"measurement": "peribronchiolar and perivascular inflammatory cell infiltration (histology)", "setting": "[1]; lung paraffin sections", "result": "decreased"},
      {"measurement": "lung expression of pro-inflammatory genes (IL-1β, IL-6, IL-4, IL-5, IL-13, Eotaxin, CCL4)", "setting": "[1]; q-RT-PCR", "result": "efficiently decreased"},
      {"measurement": "pro-inflammatory genes overexpressed in DSS-induced ulcerative colitis (IL-1β, IL-6, IL-17a, IL-17f, TSLP, MMP13)", "setting": "[2]; colon, q-RT-PCR, D14", "result": "similarly repressed"},
      {"measurement": "colonic villus/crypt structure (histology)", "setting": "[2]; [6]", "result": "almost reestablished"},
      {"measurement": "mucosal and submucosal cell infiltration (histology)", "setting": "[2]; [6]", "result": "significantly decreased"},
      {"measurement": "clinical signs of allergic conjunctivitis (conjunctival hyperemia, lid edema and tearing)", "setting": "[3]", "result": "considerably reduced"},
      {"measurement": "thymus apoptosis (thymus weight)", "setting": "[4]", "result": "did not result in any significant thymus apoptosis"},
      {"measurement": "cortex layers, most notably the fasciculata zone, of the adrenal glands (histology)", "setting": "adrenal glands; s.c. 1 mg/kg daily", "result": "markedly increased"},
      {"measurement": "transcripts of Cyp11a, Cyp11b1 and HSD3β genes in adrenal glands (corticosterone synthesis pathway)", "setting": "adrenal glands; s.c. 1 mg/kg daily, q-RT-PCR", "result": "increased"},
      {"measurement": "plasmatic corticosterone level at 10 a.m.", "setting": "adrenal glands; vs Vehicle", "result": "much higher"},
      {"measurement": "blood glucose level during two-hour IPGTT", "setting": "[5]", "result": "no significant difference"}
    ]}
  ]
}
